The structures appear in SMILES notation. Where “and” joins values, the source holds several entries; their conditions need not be identical. Equal values may be shown once. Inconclusive results and toxic doses are left out.

The values below come from PubChem BioAssay AID248 (DTP/NCI, 2004).

This assay has as its system L1210 leukemia ip in BDF1 mice, survival T/C. The assay is described as follows: NCI In Vivo Anticancer Drug Screen. Data for tumor model L1210 Leukemia (intraperitoneal) in B6D2F1 (BDF1) mice. The settings on record: endpoint: mean survival time, higher = longer survival. The gist of the method:
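Transplantable tumor model; survival measured in treated vs vehicle control mice. Value = treated/control.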

The mark [1] stands for this setting: dose: 100.0 mg/kg/injection, schedule: Q01DX009 (ip), vehicle: saline with Tween-80.
Setting [2] is: dose: 100.0 mg/kg/injection, schedule: Q04DX003 (ip), vehicle: saline.
Setting [3] is: dose: 200.0 mg/kg/injection, schedule: Q01DX009 (ip), vehicle: saline with Tween-80.
Setting [4] is: dose: 200.0 mg/kg/injection, schedule: Q04DX003 (ip), vehicle: saline.
Setting [5] is: dose: 400.0 mg/kg/injection, schedule: Q04DX003 (ip), vehicle: saline.
Setting [6] is: dose: 100.0 mg/kg/injection, schedule: Q04DX002 (ip), vehicle: Klucel (hydroxypropylcellulose) (HPC).
Where [7] appears, read: dose: 200.0 mg/kg/injection, schedule: Q04DX002 (ip), vehicle: Klucel (hydroxypropylcellulose) (HPC).
[8] abbreviates: dose: 400.0 mg/kg/injection, schedule: Q04DX002 (ip), vehicle: Klucel (hydroxypropylcellulose) (HPC).
Setting [9] is: dose: 100.0 mg/kg/injection, schedule: Q01DX009 (ip), vehicle: Klucel (hydroxypropylcellulose) (HPC).
The mark [10] stands for this setting: dose: 100.0 mg/kg/injection, schedule: Q04DX003 (ip), vehicle: Klucel (hydroxypropylcellulose) (HPC).
The mark [11] stands for this setting: dose: 200.0 mg/kg/injection, schedule: Q01DX009 (ip), vehicle: Klucel (hydroxypropylcellulose) (HPC).
Where [12] appears, read: dose: 200.0 mg/kg/injection, schedule: Q04DX003 (ip), vehicle: Klucel (hydroxypropylcellulose) (HPC).
The mark [13] stands for this setting: dose: 400.0 mg/kg/injection, schedule: Q01DX009 (ip), vehicle: Klucel (hydroxypropylcellulose) (HPC).
Where [14] appears, read: dose: 400.0 mg/kg/injection, schedule: Q04DX003 (ip), vehicle: Klucel (hydroxypropylcellulose) (HPC).
The mark [15] stands for this setting: dose: 100.0 mg/kg/injection, schedule: Q01DX001 (ip), vehicle: carboxymethylcellulose (CMC).
Where [16] appears, read: dose: 200.0 mg/kg/injection, schedule: Q01DX001 (ip), vehicle: carboxymethylcellulose (CMC).
Setting [17] is: dose: 400.0 mg/kg/injection, schedule: Q01DX001 (ip), vehicle: carboxymethylcellulose (CMC).
[18] abbreviates: dose: 100.0 mg/kg/injection, schedule: Q01DX001 (ip), vehicle: saline.
The mark [19] stands for this setting: dose: 200.0 mg/kg/injection, schedule: Q01DX001 (ip), vehicle: saline.
[20] abbreviates: dose: 400.0 mg/kg/injection, schedule: Q01DX001 (ip), vehicle: saline.
[21] abbreviates: dose: 25.0 mg/kg/injection, schedule: Q01DX009 (ip), vehicle: saline with Tween-80.

`CCOC(=O)C(C)(C(=O)OCC)c1ccccc1`: the T/C under setting [1] was 97 % of control; the T/C under setting [2] was 97 % of control; the T/C under setting [3] was 95 % of control; the T/C under setting [4] was 97 % of control; the T/C (dose: 400.0 mg/kg/injection, schedule: Q01DX009 (ip), vehicle: saline with Tween-80) is 95 % of control; the T/C under setting [5] is 98 % of control.

With `Cc1ccc(C(Br)S(=O)(=O)c2ccccc2)cc1` (stereo not drawn), the T/C is, setting by setting: under setting [6], 97 % of control; under setting [7], 86 % of control; under setting [8], 111 % of control.

On to `O=C(COCC(=O)N/N=C/c1ccccc1O)N/N=C/c1ccccc1O`, for which the T/C was 93 % of control (dose: 100.0 mg/kg/injection, schedule: Q01DX001 (ip), vehicle: Klucel (hydroxypropylcellulose) (HPC)); 98 % of control and 103 % of control under setting [9]; 109 % of control under setting [6]; 110 % of control under setting [10]; 92 % of control (dose: 200.0 mg/kg/injection, schedule: Q01DX001 (ip), vehicle: Klucel (hydroxypropylcellulose) (HPC)); 94 % of control and 98 % of control under setting [11]. The T/C reads like this: under setting [7], 91 % of control; under setting [12], 108 % of control; (dose: 400.0 mg/kg/injection, schedule: Q01DX001 (ip), vehicle: Klucel (hydroxypropylcellulose) (HPC)) 91 % of control; under setting [13], 95 % of control and 87 % of control; under setting [8], 100 % of control; under setting [14], 105 % of control.

Turning to `O=C(NCCCNC(=O)Nc1cccc(C2=NCCN2)c1)Nc1cccc(C2=NCCN2)c1`, the T/C reads like this: (dose: 8.0 mg/kg/injection, schedule: Q01DX Z (ip), vehicle: carboxymethylcellulose (CMC)) 104 % of control; (dose: 16.0 mg/kg/injection, schedule: Q01DX Z (ip), vehicle: carboxymethylcellulose (CMC)) 111 % of control; (dose: 32.0 mg/kg/injection, schedule: Q01DX Z (ip), vehicle: carboxymethylcellulose (CMC)) 104 % of control; (dose: 64.0 mg/kg/injection, schedule: Q01DX Z (ip), vehicle: carboxymethylcellulose (CMC)) 94 % of control.

`COc1ccc(Cl)cc1NC(=O)Nc1ccc(Cl)cc1[N+](=O)[O-]`: the T/C under setting [9] was 100 % of control, the T/C under setting [11] is 94 % of control and the T/C under setting [13] was 97 % of control.

Take `COC(=O)CC12CCCC(C)(CC(=O)N1)C2` (stereo not drawn): the T/C is, setting by setting: under setting [15], 93 % of control; under setting [16], 96 % of control; under setting [17], 98 % of control.

Take `CNc1ccccc1[N+](=O)[O-]`: the T/C under setting [9] is 100 % of control; the T/C (dose: 100.0 mg/kg/injection, schedule: Q01DX009 (ip), vehicle: other) is 104 % of control; the T/C under setting [10] is 96 % of control; the T/C (dose: 100.0 mg/kg/injection, schedule: Q04DX003 (ip), vehicle: other) was 107 % of control; the T/C under setting [11] is 98 % of control; the T/C (dose: 200.0 mg/kg/injection, schedule: Q01DX009 (ip), vehicle: other) was 95 % of control. Further, the T/C is, setting by setting: under setting [12], 95 % of control; (dose: 200.0 mg/kg/injection, schedule: Q04DX003 (ip), vehicle: other) 97 % of control; under setting [13], 104 % of control; (dose: 400.0 mg/kg/injection, schedule: Q01DX009 (ip), vehicle: other) 95 % of control; under setting [14], 98 % of control; (dose: 400.0 mg/kg/injection, schedule: Q04DX003 (ip), vehicle: other) 113 % of control.

As to `Nc1ccc(S(=O)(=O)CI)cc1`, the T/C under setting [15] was 100 % of control and the T/C under setting [16] was 92 % of control.

As for `CCOC(=O)c1cc(C)n(-c2ccc(-c3ccc(-n4c(C)cc(C(=O)OCC)c4C)c(C)c3)cc2C)c1C`, the T/C reads like this: under setting [10], 98 % of control; under setting [12], 101 % of control; under setting [14], 93 % of control.

For the molecule `CCC1([N+](=O)[O-])COP(=O)(N2CC2C)OC1` (stereo not drawn), the T/C under setting [15] was 98 % of control, the T/C under setting [16] is 96 % of control and the T/C under setting [17] was 98 % of control.

`C(=Nc1cccnc1)c1c[nH]c2ccccc12`: the T/C was 95 % of control under setting [9], 86 % of control under setting [11] and 89 % of control under setting [13].

Turning to `CNC(=O)N(C)N=O`, the T/C by setting is: (dose: 10.0 mg/kg/injection, schedule: Q01DX Z (ip), vehicle: carboxymethylcellulose (CMC)) 92 % of control; (dose: 75.0 mg/kg/injection, schedule: Q01DX Z (ip), vehicle: carboxymethylcellulose (CMC)) 157 % of control and 168 % of control; (dose: 100.0 mg/kg/injection, schedule: Q01DX Z (ip), vehicle: carboxymethylcellulose (CMC)) 155 % of control; (dose: 125.0 mg/kg/injection, schedule: Q01DX Z (ip), vehicle: carboxymethylcellulose (CMC)) 101 % of control.

As for `COC(=O)C(c1ccccc1)C1CCCCN1` (stereo not drawn), the T/C is 105 % of control (dose: 6.25 mg/kg/injection, schedule: Q01DX009 (ip), vehicle: saline); 98 % of control (dose: 12.5 mg/kg/injection, schedule: Q01DX009 (ip), vehicle: saline); 96 % of control (dose: 25.0 mg/kg/injection, schedule: Q01DX009 (ip), vehicle: saline); 97 % of control (dose: 25.0 mg/kg/injection, schedule: Q04DX003 (ip), vehicle: saline); 100 % of control (dose: 50.0 mg/kg/injection, schedule: Q01DX009 (ip), vehicle: saline); 97 % of control (dose: 50.0 mg/kg/injection, schedule: Q04DX003 (ip), vehicle: saline). In addition, under setting [2], the T/C is 108 % of control.

Take `CC12C=CC3(CCC4C(C)(C)C(OC5OC(CO)C(O)C(O)C5O)C(=O)CC4(C)C3CC1=O)C2` (stereo not drawn): the T/C is 100 % of control under setting [18], 109 % of control under setting [19] and 97 % of control under setting [20].

As for `CC1=CCC(C(C)C)C=C1` (stereo not drawn), the T/C was 101 % of control (dose: 25.0 mg/kg/injection, schedule: Q01DX009 (ip), vehicle: Klucel (hydroxypropylcellulose) (HPC)); 96 % of control (dose: 50.0 mg/kg/injection, schedule: Q01DX009 (ip), vehicle: Klucel (hydroxypropylcellulose) (HPC)); 102 % of control under setting [9]; 93 % of control (dose: 100.0 mg/kg/injection, schedule: Q01DX009 (ip), vehicle: saline); 96 % of control under setting [2]; 96 % of control under setting [11]. Also, the T/C by setting is: under setting [4], 98 % of control; under setting [5], 97 % of control.

With `Cc1ccc(C)c(N(c2ccccc2N)S(C)(=O)=O)c1`, the T/C reads like this: (dose: 50.0 mg/kg/injection, schedule: Q01DX001 (ip), vehicle: saline) 95 % of control; under setting [18], 95 % of control; under setting [19], 101 % of control; under setting [20], 90 % of control.

`CCc1ccc(NC(=O)CCC(=O)O)cc1`: the T/C by setting is: under setting [9], 102 % of control; under setting [11], 93 % of control; under setting [13], 90 % of control.

As for `[Cu+2].[NH-]C(CC(=O)O)C(=O)O.[NH-]C(CC(=O)O)C(=O)O` (stereo not drawn), the T/C (dose: 5.0 mg/kg/injection, schedule: Q01DX001 (ip), vehicle: saline) is 96 % of control; the T/C (dose: 10.0 mg/kg/injection, schedule: Q01DX001 (ip), vehicle: saline) is 96 % of control; the T/C (dose: 20.0 mg/kg/injection, schedule: Q01DX001 (ip), vehicle: saline) was 91 % of control; the T/C (dose: 40.0 mg/kg/injection, schedule: Q01DX001 (ip), vehicle: saline) is 96 % of control.

In the case of `CCN1CCCC(Nc2cc(C)nc(Nc3nc4cc(Cl)c(Cl)cc4[nH]3)n2)C1` (stereo not drawn), the T/C runs as follows: under setting [21], 94 % of control; under setting [18], 98 % of control.

`C[C@H](CCC[C@H](C)OS(=O)(=O)c1ccccc1)OS(=O)(=O)c1ccccc1`: the T/C was 104 % of control and 112 % of control under setting [21]; 107 % of control and 112 % of control (2×) (dose: 50.0 mg/kg/injection, schedule: Q01DX009 (ip), vehicle: saline with Tween-80); 109 % of control under setting [1]; 112 % of control (2×) and 117 % of control under setting [3].
